Data on three molecules can be found in PMC7403827 (Clinical and Translational Medicine, 2020).

Read-outs that look alike come from different tables or passages of the source.

For one series, the system named is EGFR‐mutant NSCLC. The conditions noted are these: cited from earlier work.
Series [1] in a line: Pharmacokinetic analyses: apatinib and gefitinib plasma concentrations (LC–MS/MS, non‐compartmental). The conditions noted are these: for half-life: T1/2, gefitinib 250 mg + apatinib 500 or 250 mg. An excerpt:
In the two cohorts, PK assessment consisted of a single‐dose‐administration on Cycle 1, Day 1's (C1, D1) test and a continuous‐dose‐administration on Cycle 1, Day 15′s (C1, D15) test. For detailed blood collection administration, see the supplementary materials. […] PK parameters, including maximum plasma concentration (C max), area under the plasma concentration‐time curve (AUC), time to reach maximum plasma concentration (T max), elimination half‐life (T 1/2), steady state concentration (Css), area under the plasma concentration‐time curve for steady state (AUCss), steady state volume of distribution (Vdss), and steady state clearance rate (CLss) were calculated using non‐compartmental methods with Winnonlin 7 software. The AUC was estimated by using the linear trapezoidal rule method and T 1/2 was determined by linear regression of the terminal slope of the logarithmic plasma concentration‐time profile. Descriptive statistics were measured for the PK parameters using mean with its corresponding standard deviation (SD).
In the two cohorts, PK assessment consisted of a single-dose-administration (C1D1) test and a continuous-dose-administration (C1D15) test. Serial peripheral blood samples were collected at pre-dose and 1, 2, 3, 4, 5, 6, 8, 12 and 24 post-dose for the single dose PK test. For the continuous PK test, serial peripheral blood samples were collected at pre-dose and at 0.5, 1, 2, 3, 4, 5, 6, 8, 12, and 24 hours post-dose on […]. Samples were centrifuged, and plasma frozen at −80°C refrigerator until further analysis.
Descriptive statistics (mean and standard deviation) were estimated for PK parameters. Median values and ranges were provided for time to reach maximum plasma concentration.

For series [2] the following is noted: Gefitinib 225mg, Japanese patients, ref [3] Nakagawa K et al., Annals of Oncology 2003, cited from earlier work.
For series [3] the following is noted: cited from earlier work.

Regarding `C=CC(=O)Nc1cc(Nc2nccc(-c3cn(C)c4ccccc34)n2)c(OC)cc1N(C)CCN(C)C` [Osimertinib], in the series with EGFR‐mutant NSCLC (AURA3 study), the mPFS is on record as 10.1 months.

For orientation: AUC(0-t) means exposure summed from dosing to a finite time, without extrapolation to infinity. For orientation: AUC means the area under the concentration-time curve, a measure of exposure. As a reminder, the half-life is the time needed for the level to fall by half in the phase considered. On to `COc1cc2ncnc(Nc3ccc(F)c(Cl)c3)c2cc1OCCCN1CCOCC1` [Gefitinib], for which the Cmaxmulti is 469 (134) ng/ml in series [1] (Table S6, Gefitinib 250mg + apatinib, this study, geometric mean, SD) and 341 (61) ng/ml in series [2]. Besides, the Tmax in series [1] (gefitinib 250 mg + apatinib 500 or 250 mg, Day 15 (n = 11), Median (range)) is 4 (3‐6) h; in series [1] (human, plasma, oral, Tmax, Table S6, Gefitinib 250mg + apatinib, this study, geometric mean, SD), 3.9 h; in series [1] (human, plasma, oral, Tmax, gefitinib 250 mg + apatinib 500 or 250 mg, Day 1 (n = 11), Median (range)), 3 h; in series [1] (human, plasma, oral, Tmax, gefitinib 250 mg + apatinib 500 or 250 mg, Day 15 (n = 11), Median (range)) it was 3 h; in series [2], 5 (3-7) h. For the same molecule, the exposure AUC(0-t) in series [1] (human, plasma, oral, AUC0-24, Table S6, Gefitinib 250mg + apatinib, this study, geometric mean, SD) amounted to 3330 ng·h/mL. The AUC stood at 8130 ng·h/mL in series [1] (human, plasma, oral, AUC0-24multi, Table S6, Gefitinib 250mg + apatinib, this study, multiple-dosage regimen, geometric mean, SD); 3440 ng·h/mL in series [1] (human, plasma, oral, AUC0‐24, gefitinib 250 mg + apatinib 500 or 250 mg, Day 1 (n = 11), Table 2: Geometric Mean (%CV)); 7980 ng·h/mL in series [1] (human, plasma, oral, AUC0‐24, gefitinib 250 mg + apatinib 500 or 250 mg, Day 15 (n = 11), Table 2: Geometric Mean (%CV)); 6400 ng·h/mL in series [1] (human, plasma, oral, AUC0‐∞, gefitinib 250 mg + apatinib 500 or 250 mg, Day 1 (n = 11), Geometric Mean (%CV)); 18100 ng·h/mL in series [1] (human, plasma, oral, AUC0‐∞, gefitinib 250 mg + apatinib 500 or 250 mg, Day 15 (n = 11), Geometric Mean (%CV)); 7220 ± 1730 ng·h/mL in series [1] (human, plasma, oral, AUCss, steady state, Gefitinib 250mg + apatinib, Mean±SD). The clearance in series [1] (human, plasma, oral, CL, gefitinib 250 mg + apatinib 500 or 250 mg, Day 1 (n = 11), Mean (SD)) was 683 mL/min; in series [1] (human, plasma, oral, CL, gefitinib 250 mg + apatinib 500 or 250 mg, Day 15 (n = 11), Mean (SD)), 533 mL/min; in series [1] (human, plasma, oral, CLss, steady state, Gefitinib 250mg + apatinib, Mean±SD), 617 mL/min. Besides, the Cmax was 488 ± 28 ng/mL in series [1] (human, plasma, oral, Table S6, Gefitinib 250mg + apatinib, this study, geometric mean, SD); 272 ng/mL in series [1] (human, plasma, oral, gefitinib 250 mg + apatinib 500 or 250 mg, Day 1 (n = 11), Table 2: Geometric Mean (%CV)); 465 ng/mL in series [1] (human, plasma, oral, gefitinib 250 mg + apatinib 500 or 250 mg, Day 15 (n = 11), Table 2: Geometric Mean (%CV)); 150 (92) ng/ml in series [2]. The half-life in series [1] (human, plasma, oral, Day 1 (n = 11), Mean (SD)) is 21 h; in series [1] (human, plasma, oral, Day 15 (n = 11), Mean (SD)), 30 h. Also, the Vd in series [1] (human, plasma, oral, Vd, gefitinib 250 mg + apatinib 500 or 250 mg, Day 1 (n = 11), Mean (SD)) amounted to 1100 L; in series [1] (human, plasma, oral, Vd, gefitinib 250 mg + apatinib 500 or 250 mg, Day 15 (n = 11), Mean (SD)), 1330 L; in series [1] (human, plasma, oral, Vdss, steady state, Gefitinib 250mg + apatinib, Mean±SD) it was 880 ± 234 L. In addition, the AUC0-24multi in series [2] (multiple-dosage regimen) is 5191 (61) ng·h/ml. The AUC0-24 in series [2] is reported as 1986 (58) ng·h/ml. The MTD in series [3] was 750 mg/day.

As for `C#Cc1cccc(Nc2ncnc3cc(OCCOC)c(OCCOC)cc23)c1` [erlotinib], in the series with EGFR‐mutant NSCLC (ARTEMIS (CTONG 1509) study), the mPFS is recorded as 11.3 months. The PFS in the series with EGFR‐mutant NSCLC (JO25567 study) was 9.7 months; in the series on EGFR‐mutant NSCLC (RELAY study), 12.4 months.
